Experimental findings from US4337248A, “Paromomycin containing compounds and method of use” (Farmitalia Carlo Erba S.p.A., priority 1979, dated 1982) are described below.

Holding throughout (assay type): cell-based
One assay has as its system Escherichia coli K 12. Description: In vitro MIC by serial dilution in liquid medium, Escherichia coli K 12. The following applies: K12, Nutrient Broth Difco, 24 hours, 37° C, read-out: minimum inhibitory concentration (MIC). Here is the method:
(§1) The "in vitro" tests are carried out with the method of serial dilutions in liquid medium (Nutrient Broth Difco) and the minimal inhibition concentration (MIC) is determined after 24 hours incubation at 37° C.

Assay [1] concerns Escherichia coli K 12-R 112. Kind of assay: In vitro MIC by serial dilution in liquid medium, Escherichia coli K 12-R 112. The following applies: K12R112, 24 h, read-out: minimum inhibitory concentration (MIC). Here is the method: as §1
Assay [2] deals with Escherichia coli K 12-R 148. Description: In vitro MIC by serial dilution in liquid medium, Escherichia coli K 12-R 148. The following applies: K12R148; Escherichia coli K 12-R 148, inactivating enzyme APH (3') II; Nutrient Broth Difco, 24 hours, 37° C; read-out: minimum inhibitory concentration (MIC). Here is the method:
as §1

Assay [3] concerns Escherichia coli K 12-R 55. Description: In vitro MIC by serial dilution in liquid medium, Escherichia coli K 12-R 55. The following applies: K12R55; Escherichia coli K 12-R 55, inactivating enzyme AAC (3) I; Nutrient Broth Difco, 24 hours, 37° C; read-out: minimum inhibitory concentration (MIC). Here is the method:
as §1

The test system of assay [4] is Staphylococcus aureus 209P. Kind of assay: In vitro MIC by serial dilution in liquid medium, Staphylococcus aureus 209P. The following applies: read-out: minimum inhibitory concentration (MIC). Here is the method: as §1
In another assay the test system is bacteria. Description: In vitro antibacterial activity (general statement). Here is the method: as §1
Assay [5] deals with resistant strains of gram-negative bacteria. Description: In vitro antibacterial activity, resistant strains of gram-negative bacteria (summary in words). The following applies: against some resistant strains of gram-negative bacteria. Here is the method: as §1
Setting [6] is: Staphylococcus aureus 209P, Nutrient Broth Difco, 24 hours, 37° C.

≈ marks a conversion by molar mass, not a printed value. Where two headings read alike, the source gives them in different places. Some results are limits rather than exact numbers.

In the case of `NC[C@@H]1O[C@H](O[C@H]2[C@@H](O)[C@H](O[C@@H]3[C@@H](O)[C@H](N)C[C@H](N)[C@H]3O[C@H]3O[C@H](CO)[C@@H](O)[C@H](O)[C@H]3N)O[C@@H]2CO)[C@H](N)[C@@H](O)[C@@H]1O` [paromomycin], the MIC is 12.5 µg/mL (≈ 20.3 µM) in the assay with Escherichia coli K 12; above 200 µg/mL in assay [1]; above 200 µg/mL in assay [2]; 6.25 µg/mL (≈ 10.2 µM) in assay [3]; 1.55 µg/mL (≈ 2.52 µM) in assay [4] (Staphylococcus aureus, 209P, 24 h).
For `NC[C@@H]1O[C@H](O[C@H]2[C@@H](O)[C@H](O[C@@H]3[C@@H](O)[C@H](N)C[C@H](N)[C@H]3O[C@H]3O[C@H](CO)[C@H](Cl)[C@H](O)[C@H]3N)O[C@@H]2CO)[C@H](N)[C@@H](O)[C@@H]1O` [(12), 4'-Deoxy-4'-epi-chloro-paromomycin], the MIC in the assay on Escherichia coli K 12 was 50 µg/mL (≈ 78.9 µM); in assay [1], above 200 µg/mL; in assay [2] it was 200 µg/mL (≈ 315 µM); in assay [3] it was 50 µg/mL (≈ 78.9 µM); in assay [4] (setting [6]) it was 6.25 µg/mL (≈ 9.86 µM). The “antibacterial activity "in vitro"” value in the assay on bacteria was “display antibacterial activity”.
Take `NC[C@@H]1O[C@H](O[C@H]2[C@@H](O)[C@H](O[C@@H]3[C@@H](O)[C@H](N)C[C@H](N)[C@H]3O[C@H]3O[C@H](CO)C[C@H](O)[C@H]3N)O[C@@H]2CO)[C@H](N)[C@@H](O)[C@@H]1O` [(8), 4'-Deoxy paromomycin]: the MIC is 12.5 µg/mL (≈ 20.8 µM) in the assay with Escherichia coli K 12; above 200 µg/mL in assay [1]; 50 µg/mL (≈ 83.4 µM) in assay [2]; 6.25 µg/mL (≈ 10.4 µM) in assay [3]; 1.55 µg/mL (≈ 2.58 µM) in assay [4] (setting [6]). Besides, the “activity compared with paromomycin” value in assay [5] is listed as “increased activity against some resistant strains of gram-negative bacteria”. Moreover, in the assay with bacteria, the “antibacterial activity "in vitro"” value is “display antibacterial activity”.
